Experiments:
[1] = system: Atoh1 expression in mouse cerebellar neural precursor cells; assay: Atoh1 induction assay in mouse cerebellar neural precursor cells (NPCs), Atoh1-GFP reporter; assay type: cell-based; details: 10 doses 50 μM to 200 nM, 72 hours treatment, DMSO control = 1, more than 5 considered significant, read-out: fold difference (maximum fold difference of GFP average intensity in cell nuclei over the DMSO control)
Description: (§1) Compounds of the present disclosure were assessed for their ability to increase the Atoh1 expression in mouse cerebellar neural precursor cells. The ability of compounds of the present disclosure to induce new hair cell formation was assessed in ex vivo hair cell induction assay using 6-day-postnatal mouse cochlea explants with hair cell damage.
Atoh1 Induction Assay in Mouse Cerebellar Neural Precursor Cells (NPCs)
Atoh1 induction assay was conducted with in vitro cultured cerebellar neural precursor cells isolated from neonatal transgenic Atoh1-GFP mice. Atoh1 expression is mainly regulated by the enhancer, and the nuclear GFP was driven by the cloned enhancer sequence at 3′ of Atoh1 which had high conservation among mammalians. So Atoh1 induction could be reflected by GFP activation in cerebellar neural precursor cells (Helms et al., Development 2000; 127: 1185-1196; Lumpkin et al., Gene Expression Patterns 2003; 3: 389-395). Postnatal 3 days pups were dissected for cerebellum tissue isolation. The cerebellum tissue was cut into small pieces, and dissociated with 0.05% Trypsin for about 10 minutes at 37° C., and then filtered with a 70 uM cell strainer. The cells were cultured as neuropsheres for the first 2 days in ultra-low attachment dish/well-plate with DMEM/F12+1% N2 &2% B27 with 1% P/S, 20 ng/ml rhFGF2 and 20 ng/ml rhEGF (R&D Systems). Then the spheres were plated to the matrigel (1:30 diluted in DMEM/F12)-coated tissue culture dish for monolayer culture. After 4.5-5.5 days culture in vitro (DIV), cells were dissociated with 0.05% trypsin into single cells, and frozen after cell number calculation.
The cerebellar neural precursor cells (NPCs) were re-thawed from stock and cultured for another 2 days before used for Atoh1 induction assay. On the first day of assay, NPCs were seeded into matrigel-coated 384 well plates (Black view-plate, PE) at 2500 cells/well. After over-night culture, the NPCs were treated with representative compounds of the present disclosure with 1:2 serial dilutions for 10 doses, from 50 μM to 200 nM, with DMSO as negative control. After 72 hours treatment without medium change, the cells were fixed with 4% formalin for staining. Assay plates were stained with GFP antibody (Abcam, #13970, 1:1000) to amplify endogenous GFP signal and then read by Cellomics.

[2] = system: 6-day-postnatal mouse cochlea explants with hair cell damage; assay: Ex vivo hair cell induction assay using 6-day-postnatal mouse cochlea explants with hair cell damage; assay type: cell-based; details: P6 Atoh1-GFP mouse cochlea explants, neomycin-damaged; 3 to 10 μM compound for 8 days, then 4 days blank medium; mean ± SD; DMSO = 0%; more than 20% considered significant
Description: as §1
Ex Vivo Hair Cell Induction Assay Using 6-Day-Postnatal Mouse Cochlea Explants with Hair Cell Damage
P6, postnatal 6 days, Atoh1-GFP mice, the same mouse strain used for Atoh1 induction assay described before, were used in this assay. The otic capsule was exposed and the cochleae were micro-dissected. […] and in vitro cultured in serum free medium (culture medium: DMEM/F12+1% N2+2% B27+5 μg/ml ampicillin) at 37° C. under a standard gas atmosphere of humidified air/5% CO2. Inner ear hair cells were damaged by 1 mM Neomycin treatment for 1.25 h. After the neomycin treatment, explants were cultured in blank culture medium for 7 days before the treatment of selected compounds.
For compound administration, the cochlea explants were treated with 3 to 10 μM compound of the present disclosure, with DMSO as the negative control for 8 days with once compound/medium change. After 8 days treatment, the tested compound was removed. The explants were cultured in blank medium for additional 4 days. The cochlea explant cultures then were fixed with 4% w/v formalin and processed for Myo7a immunofluorescence (Myo7a is a specific marker for sensory hair cell) using the rabbit anti-Myo7a antibody (Protus Biosci #25-6790, 1:250 diluted in PBS containing 3% BSA). Rhodamine labeled Goat-anti-rabbit IgG (Molecular Prob. #R6394, 1:1000 diluted in PBS containing 3% BSA) was used as the secondary antibody to visualize the Myo7a positive cells. The images were collected and analyzed using the EVOS image system (Thermo-Fisher Scientific). […] The hair cell identity of the ectopically formed cells was confirmed by staining the cells with multiple hair cell markers.
The efficacy of hair cells induction in this assay is represented by the responsive length percentage of Atoh1 and Myo7a double positive cells in the damaged whole explants after compound treatment. The responsive length percentage was calculated according to the equation of ((the explant length with Atoh1 and Myo7a double positive cells/the full length of cochlea explant)*100%). Note the value of DMSO control is 0% due to total damage of hair cells, and any responsive length percentage more than 20% is considered as significant hair cell induction.

Row | Compound | maximal fold induction [1] | Responsive length % (explant length with Atoh1 and Myo7a double positive cells / full length of cochlea explant) [2] [%]
1 | O=C(NCCCCCN1CC[C@H](F)C1)c1cc(-c2cccs2)on1 [Example 45, (S)—N-(5-(3-fluoropyrrolidin-1-yl)pentyl)-5-(thiophen-2-yl)isoxazole-3-carboxamide] | 24 | 51.9 ± 14.9
2 | CN1CCN(CCCCCNC(=O)c2cc(-c3cccs3)on2)CC1 [Example 8, N-(5-(4-Methylpiperazin-1-yl)pentyl)-5-(thiophen-2-yl)isoxazole-3-carboxamide] | 30.9 | 54.0 ± 6.3
3 | O=C(NCCCCCN1CC[C@H](O)C1)c1cc(-c2cccs2)on1 [Example 36] | 15.7 | 28.1 ± 6.3
4 | CC1CN(CCCCCNC(=O)c2cc(-c3cccs3)on2)CC(C)N1 (centres unmarked) [Example 14, N-(5-(3,5-Dimethylpiperazin-1-yl)pentyl)-5-(thiophen-2-yl)isoxazole-3-carboxamide] | 29.1 | 45.3 ± 6.7
5 | CN1CCN(CCCCCNC(=O)c2cc(-c3ccc(F)cc3)on2)CC1 [Example 10, 5-(4-Fluorophenyl)-N-(5-(4-methylpiperazin-1-yl)pentyl)isoxazole-3-carboxamide] | 17.6 | 59.1 ± 9.1
6 | O=C(NCCCCCN1CCC(F)CC1)c1cc(-c2cccs2)on1 [Example 53] | 22.9 | 34.7 ± 9.8
7 | CN1C2CCC1CN(CCCCCNC(=O)c1cc(-c3cccs3)on1)C2 [Example 12, N-(5-(8-Methyl-3,8-diazabicyclo[3.2.1]octan-3-yl)pentyl)-5-(thiophen-2-yl)isoxazole-3-carboxamide] | 21.1 | 39.7 ± 8.2
8 | O=C(NCCCCCN1CC(O)C1)c1cc(-c2ccc(F)cc2)on1 [Example 67] | 18.9 | 58.2 ± 3.5
9 | CN1CC2CCC1CN2CCCCCNC(=O)c1cc(-c2cccs2)on1 (centres unmarked) [Example 52, N-(5-(5-methyl-2,5-diazabicyclo[2.2.2]octan-2-yl)pentyl)-5-(thiophen-2-yl)isoxazole-3-carboxamide] | 26.7 | 28.2 ± 11.9
10 | O=C(NCCCCCN1CC2CCC(C1)O2)c1cc(-c2cccs2)on1 [Example 51, N-(5-(8-oxa-3-azabicyclo[3.2.1]octan-3-yl)pentyl)-5-(thiophen-2-yl)isoxazole-3-carboxamide] | 9.9 | 48.6 ± 3.0
11 | COC1CN(CCCCCNC(=O)c2cc(-c3cccs3)on2)C1 [Example 47] | 27.8 | 64.4 ± 17.2
12 | CC1CN(CCCCCNC(=O)c2cc(-c3cccs3)on2)CC(C)N1C (centres unmarked) [Example 15, 5-(Thiophen-2-yl)-N-(5-(3,4,5-trimethylpiperazin-1-yl)pentyl)isoxazole-3-carboxamide] | 15.3 | 50.1 ± 9.9
13 | CC(=O)N1CCN(CCCCCNC(=O)c2cc(-c3cccs3)on2)CC1 [Example 40] | 21.5 | 36.9 ± 7.4
14 | NC(=O)C1CN(CCCCCNC(=O)c2cc(-c3ccc(F)cc3)on2)C1 [Example 65, N-(5-(3-carbamoylazetidin-1-yl)pentyl)-5-(4-fluorophenyl)isoxazole-3-carboxamide] | 29.8 | 43.1 ± 7.6
15 | O=C(NCCCCCN1CCN(CCO)CC1)c1cc(-c2cccs2)on1 [Example 54, N-(5-(4-(2-hydroxyethyl)piperazin-1-yl)pentyl)-5-(thiophen-2-yl)isoxazole-3-carboxamide] | 27.8 | 35.6 ± 11.8
16 | O=C(NCCCCCN1CC2CCC(C1)N2)c1cc(-c2cccs2)on1 [Example 11, N-(5-(3,8-Diazabicyclo[3.2.1]octan-3-yl)pentyl)-5-(thiophen-2-yl)isoxazole-3-carboxamide] | 12.4 | 51.7 ± 8.1
17 | O=C(NCCCCCN1CC(O)C1)c1cc(-c2cccs2)on1 [Example 48] | 37.5 | 75.8 ± 4.5
18 | O=C(NCCCCCN1CC(F)C1)c1cc(-c2cccs2)on1 [Example 59] | 29.1 | 54.1 ± 5.8
19 | COC(=O)NC1CN(CCCCCNC(=O)c2cc(-c3cccs3)on2)C1 [Example 17, Methyl (1-(5-(5-(thiophen-2-yl)isoxazole-3-carboxamido)pentyl)azetidin-3-yl)carbamate] | 34.6 | 52.9 ± 6.8
20 | C[C@@H]1CN(CCCCCNC(=O)c2cc(-c3cccs3)on2)C[C@H](C)O1 [Example 42] | 23.7 | 28.8 ± 8.3
21 | N#CCC1CN(CCCCCNC(=O)c2cc(-c3ccc(F)cc3)on2)C1 [Example 66] | 25.1 | 61.5 ± 6.0
22 | N#CC1CCN(CCCCCNC(=O)c2cc(-c3cccs3)on2)CC1 [Example 56] | 36.9 | 26.5 ± 9.4
23 | NC(=O)C1CN(CCCCCNC(=O)c2cc(-c3cccs3)on2)C1 [Example 27, N-(5-(3-Carbamoylazetidin-1-yl)pentyl)-5-(thiophen-2-yl)isoxazole-3-carboxamide] | 33.7 | 66.0 ± 2.4
24 | O=C(NCCCCCN1CC(CO)C1)c1cc(-c2cccs2)on1 [Example 55] | 29 | 53.1 ± 6.2
25 | N#CCC1CN(CCCCCNC(=O)c2cc(-c3cccs3)on2)C1 [Example 49] | 37.1 | 47.5 ± 9.2
